The values below come from the OPERA property sets (Mansouri et al. 2018).

`Cc1c(F)c(F)c(C)c(F)c1F` registered a boiling point of 144 °C and a melting point of 36 °C.
`CCCCSP(SCCCC)SCCCC`: the melting point amounted to 100 °C.
`C=CCC(C)(O)CC=C` gave a boiling point of 158 °C.
Compound `CCC(Oc1ccccc1)C(=O)O` (stereo not given) returned a boiling point of 258 °C and a melting point of 98 °C.
With `C#CCN1C(=O)COc2cc(F)c(N3C(=O)C4=C(CCCC4)C3=O)cc21`, the melting point was determined as 202 °C.
In the case of `C/C=N/O`, the boiling point worked out at 115 °C and the melting point turned out to be 45 °C.
`C=CC(=C)C`: the boiling point is 34 °C, the log10 Koa is 2.06, the log10 vapour pressure (mmHg) was 2.74 and the melting point was -146 °C. In addition, the ready biodegradability result was “not readily biodegradable”.
`c1ccc2c(c1)CCN2` yielded a boiling point of 229 °C.
The compound `Cc1ccc(Cc2ccccc2)cc1` displayed a boiling point of 286 °C and a melting point of -30 °C.
With `CCc1nn(C)c(C(=O)NCc2ccc(C(C)(C)C)cc2)c1Cl`, the melting point was 61.5 °C.
For `O=C(O)c1ccccc1-c1ccccc1`, the boiling point came to 344 °C and the melting point was determined as 114 °C.
For `CC1CS1` (stereo not given) the same measures were 72.5 °C and -91 °C.
For `Oc1ccc(Nc2ccccc2)cc1` the same measures were 330 °C and 73 °C.
As for `Cn1cccc1-c1cccnc1`, the boiling point worked out at 281 °C.
In the case of `O=C(Oc1ccccc1)c1ccccc1C(=O)Oc1ccccc1`, the melting point was 73 °C.
`CCCCN1CCCC1`: the boiling point worked out at 154 °C and the ready biodegradability entry is “readily biodegradable”.
Compound `O=C(Cl)CCC(=O)Cl` gave a boiling point of 193 °C, a log10 vapour pressure (mmHg) of -0.432 and a melting point of 20 °C.
In turn, `Cc1c2ccccc2cc2ccc3ccccc3c12` came in with a melting point of 138 °C.
For `Nc1ccncc1`, the boiling point amounted to 273 °C, the melting point came out at 158 °C and the ready biodegradability result is on record as “not readily biodegradable”.
In turn, `CCCCN1CCCCC1` showed a boiling point of 176 °C.
In the case of `CC(C)CC=O`, the boiling point was 92.5 °C, the log10 vapour pressure (mmHg) amounted to 1.7 and the melting point was -51 °C.
As for `Nc1nccnn1`, the melting point turned out to be 176 °C.
Compound `C#C[C@]1(OC(C)=O)CC[C@H]2[C@@H]3CCC4=C/C(=N/O)CC[C@@H]4[C@H]3CC[C@@]21CC` showed a melting point of 216 °C.
`CC(=O)Nc1ccc2c(c1)Cc1cc(F)ccc1-2`: the ready biodegradability entry is given as “not readily biodegradable”.
On to `O=C(Nc1ccccc1)c1ccccc1I`, for which the log10 Koc (L/kg) turned out to be 2.82 and the melting point came out at 137 °C.
`O=C(Nc1ccc(Cl)c(Cl)c1)Nc1cc(Cl)ccc1Oc1ccc(Cl)cc1S(=O)(=O)[O-].[Na+]`: the melting point was 223 °C.
Same read-out and setting: the figure for `Nc1cccc2cc3ccccc3nc12` is 108 °C; for `Oc1ccc(S)cc1` it is 29.5 °C.
With `C1CCC2(CC1)CCCCC2`, the boiling point is 207 °C.
The compound `COc1cc2c(c(OC)c1OC)-c1ccc(OC)c(=O)cc1[C@@H](NC(C)=O)CC2` had a melting point of 156 °C.
On the same count and under the same terms, the figure for `O=C(O)[C@H](O)[C@@H](O)[C@H](O)[C@H](O)CO` is 131 °C.
Regarding `Cc1cc(C(C)(C)C)c(O)c(C(C)(C)C)c1`, the boiling point was determined as 265 °C, the log10 vapour pressure (mmHg) is -2.29, the melting point was determined as 71 °C and the ready biodegradability result is recorded as “readily biodegradable”.
With `CCN(CC)C(=O)C(Cl)(Cl)Cl`, the melting point turned out to be 27 °C.
Still for that read-out and setting: the figure for `CCOC(=O)c1cc2ccccc2[nH]1` is 124 °C.
On the same count and under the same terms, the same measure for `CN1C(CSCC(F)(F)F)Nc2cc(Cl)c(S(N)(=O)=O)cc2S1(=O)=O` (stereo not given): 214 °C.
In turn, `CCSCCSP(=S)(OC)OC` came in with a log10 vapour pressure (mmHg) of -4.77.
Consider `C1CCCCCCCCCCC1`, for which the boiling point was 247 °C, the melting point came out at 60.4 °C and the ready biodegradability entry is recorded as “not readily biodegradable”.
Turning to `ClCCCCBr`, the boiling point is 175 °C.
For `Clc1c2ccccc2nc2ccccc12`, the melting point amounted to 121 °C.
`[C-]#[N+]C` came in with a boiling point of 59.6 °C and a melting point of -45 °C.
`Brc1sc(Br)c(Br)c1Br`: the boiling point came to 326 °C and the melting point was determined as 118 °C.
Turning to `CCC(C)(C)CC`, the boiling point worked out at 86 °C, the log10 biodegradation half-life (days) was found to be 0.954, the log10 vapour pressure (mmHg) is 1.92 and the melting point was -135 °C.
For the compound `CNP(=O)(OC)Oc1ccc(C(C)(C)C)cc1Cl` (stereo not given), the melting point was 60 °C.
In the case of `CC(C)(C)C(=O)CCl`, the boiling point came out at 172 °C and the melting point was -13 °C.
The compound `COc1ccc(C(c2ccc(OC)cc2)C(Cl)(Cl)Cl)cc1` came in with a boiling point of 346 °C, a log10 Henry constant (atm·m³/mol) of -6.69, a log10 Koc (L/kg) of 4.9 and a melting point of 87 °C.
The compound `CCC(C)ON=O` (stereo not given) returned a boiling point of 68.5 °C.
For `CC(=O)N(C)c1ccccc1C`, the boiling point amounted to 260 °C and the melting point came to 55.5 °C.
As for `CCCCCCNC(=O)n1cc(F)c(=O)[nH]c1=O`, the melting point was 110 °C.
As to `CCCCC(O)CCCC`, the boiling point came to 193 °C.
`O=C1C(Cl)=C(NC(=O)C(Cl)Cl)C(=O)c2ccccc21` had a melting point of 212 °C.
Regarding `CC(C)(C)C1CCCCC1O` (stereo not given), the melting point came to 45 °C.
The same measure, in the same setting: the figure for `N[C@@H]1CONC1=O` is 140 °C; for `O=C(C(=O)c1cc(Br)ccc1O)c1cc(Br)ccc1O` it is 212 °C; for `OCCOc1cccc2ccccc12` it is 45 °C.
Consider `c1ccc(C2CO2)cc1` (stereo not given), for which the boiling point amounted to 194 °C, the log10 vapour pressure (mmHg) was -0.523, the melting point is -35.6 °C and the ready biodegradability result is recorded as “readily biodegradable”.
Compound `Cc1ccc(S(=O)(=O)N(Cl)Cl)cc1` had a melting point of 83 °C.
The same measure, in the same setting: the same measure for `CC(C)(O)CCSc1ccc(S(N)(=O)=O)cc1`: 140 °C.
With `CCCCCCCCN`, the boiling point was found to be 180 °C, the log10 vapour pressure (mmHg) was -0.0137 and the melting point was 0 °C.
For the compound `CN1CCN(CCCN2c3ccccc3Sc3ccc(C(F)(F)F)cc32)CC1.Cl.Cl`, the melting point was found to be 240 °C.
As for `BrC(Br)=C(Br)Br`, the boiling point came out at 226 °C and the melting point was determined as 56.5 °C.

As a reminder, the boiling point is the temperature at which the vapour pressure of the liquid equals the pressure above it. What is called melting point is the temperature of the solid-liquid transition.
